Test results taken from ChEMBL document CHEMBL4649994.
Where “and” joins values, the source holds several entries; their conditions need not be identical. Identical values can stand only once.

Experiments:
Settings in all cases: Compound concentration 10.0 uM, Protein concentration 2.0 uM
[1] = biological target: Protein polybromo-1 (Homo sapiens) (UniProt Q86U86); assay: Thermal Shift Assay. Domain start/stop: R487-D598
[2] = biological target: Chromatin remodeling regulator CECR2 (Homo sapiens) (UniProt Q9BXF3)
[3] = biological target: Peregrin (Homo sapiens) (UniProt P55201)
[4] = biological target: Bromodomain-containing protein 1 (Homo sapiens) (UniProt O95696)
[5] = biological target: Nuclear body protein SP140 (Homo sapiens) (UniProt Q13342)
[6] = biological target: Transcription intermediary factor 1-beta (Homo sapiens) (UniProt Q13263)
[7] = biological target: Transcription initiation factor TFIID subunit 1 (Homo sapiens) (UniProt P21675)
[8] = biological target: Bromodomain adjacent to zinc finger domain protein 2B (Homo sapiens) (UniProt Q9UIF8)
[9] = biological target: Histone-lysine N-methyltransferase ASH1L (Homo sapiens) (UniProt Q9NR48)
[10] = biological target: Bromodomain-containing protein 9 (Homo sapiens) (UniProt Q9H8M2)
[11] = biological target: Bromodomain adjacent to zinc finger domain protein 1A (Homo sapiens) (UniProt Q9NRL2)
[12] = biological target: SWI/SNF-related matrix-associated actin-dependent regulator of chromatin subfamily A member 2 (Homo sapiens) (UniProt P51531)
[13] = biological target: PH-interacting protein (Homo sapiens) (UniProt Q8WWQ0)
[14] = biological target: Bromodomain adjacent to zinc finger domain protein 2A (Homo sapiens) (UniProt Q9UIF9)
[15] = biological target: Histone acetyltransferase KAT2B (Homo sapiens) (UniProt Q92831)
[16] = biological target: Protein polybromo-1 (Homo sapiens) (UniProt Q86U86)
[17] = biological target: Nucleosome-remodeling factor subunit BPTF (Homo sapiens) (UniProt Q12830)
[18] = biological target: Protein polybromo-1 (Homo sapiens) (UniProt Q86U86); assay: Thermal Shift Assay. Domain start/stop: H23-D159
[19] = biological target: Bromodomain-containing protein 3 (Homo sapiens) (UniProt Q15059)
Sequence of Bromodomain-containing protein 3 (Homo sapiens) (Q15059 2-726 limits assumed): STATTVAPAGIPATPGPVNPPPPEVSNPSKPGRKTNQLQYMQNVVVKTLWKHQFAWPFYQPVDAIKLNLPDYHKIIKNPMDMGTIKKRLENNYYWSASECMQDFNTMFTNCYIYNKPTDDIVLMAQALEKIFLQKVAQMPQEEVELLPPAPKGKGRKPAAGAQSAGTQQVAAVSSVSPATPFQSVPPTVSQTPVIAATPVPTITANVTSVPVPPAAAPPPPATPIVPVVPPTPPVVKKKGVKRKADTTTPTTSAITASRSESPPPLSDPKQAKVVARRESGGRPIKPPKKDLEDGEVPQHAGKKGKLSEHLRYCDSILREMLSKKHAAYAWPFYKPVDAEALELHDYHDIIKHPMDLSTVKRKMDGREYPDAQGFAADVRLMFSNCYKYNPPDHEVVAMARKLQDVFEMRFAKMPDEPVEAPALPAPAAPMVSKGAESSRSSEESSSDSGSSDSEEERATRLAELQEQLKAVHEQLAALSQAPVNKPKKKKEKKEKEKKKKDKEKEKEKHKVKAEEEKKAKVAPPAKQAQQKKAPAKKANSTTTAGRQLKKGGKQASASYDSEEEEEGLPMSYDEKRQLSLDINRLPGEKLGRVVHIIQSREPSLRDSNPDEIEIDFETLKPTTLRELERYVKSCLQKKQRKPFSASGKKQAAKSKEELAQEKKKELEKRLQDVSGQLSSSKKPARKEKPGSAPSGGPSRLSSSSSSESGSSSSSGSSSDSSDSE

[20] = biological target: Histone acetyltransferase KAT2A (Homo sapiens) (UniProt Q92830)
[21] = biological target: Protein polybromo-1 (Homo sapiens) (UniProt Q86U86); remark: listed apart in the source
[22] = biological target: Histone acetyltransferase p300 (Homo sapiens) (UniProt Q09472)
[23] = biological target: Protein polybromo-1 (Homo sapiens) (UniProt Q86U86); remark: listed apart in the source
[24] = biological target: Transcription initiation factor TFIID subunit 1-like (Homo sapiens) (UniProt Q8IZX4)
Sequence of Transcription initiation factor TFIID subunit 1-like (Homo sapiens) (Q8IZX4 whole entry): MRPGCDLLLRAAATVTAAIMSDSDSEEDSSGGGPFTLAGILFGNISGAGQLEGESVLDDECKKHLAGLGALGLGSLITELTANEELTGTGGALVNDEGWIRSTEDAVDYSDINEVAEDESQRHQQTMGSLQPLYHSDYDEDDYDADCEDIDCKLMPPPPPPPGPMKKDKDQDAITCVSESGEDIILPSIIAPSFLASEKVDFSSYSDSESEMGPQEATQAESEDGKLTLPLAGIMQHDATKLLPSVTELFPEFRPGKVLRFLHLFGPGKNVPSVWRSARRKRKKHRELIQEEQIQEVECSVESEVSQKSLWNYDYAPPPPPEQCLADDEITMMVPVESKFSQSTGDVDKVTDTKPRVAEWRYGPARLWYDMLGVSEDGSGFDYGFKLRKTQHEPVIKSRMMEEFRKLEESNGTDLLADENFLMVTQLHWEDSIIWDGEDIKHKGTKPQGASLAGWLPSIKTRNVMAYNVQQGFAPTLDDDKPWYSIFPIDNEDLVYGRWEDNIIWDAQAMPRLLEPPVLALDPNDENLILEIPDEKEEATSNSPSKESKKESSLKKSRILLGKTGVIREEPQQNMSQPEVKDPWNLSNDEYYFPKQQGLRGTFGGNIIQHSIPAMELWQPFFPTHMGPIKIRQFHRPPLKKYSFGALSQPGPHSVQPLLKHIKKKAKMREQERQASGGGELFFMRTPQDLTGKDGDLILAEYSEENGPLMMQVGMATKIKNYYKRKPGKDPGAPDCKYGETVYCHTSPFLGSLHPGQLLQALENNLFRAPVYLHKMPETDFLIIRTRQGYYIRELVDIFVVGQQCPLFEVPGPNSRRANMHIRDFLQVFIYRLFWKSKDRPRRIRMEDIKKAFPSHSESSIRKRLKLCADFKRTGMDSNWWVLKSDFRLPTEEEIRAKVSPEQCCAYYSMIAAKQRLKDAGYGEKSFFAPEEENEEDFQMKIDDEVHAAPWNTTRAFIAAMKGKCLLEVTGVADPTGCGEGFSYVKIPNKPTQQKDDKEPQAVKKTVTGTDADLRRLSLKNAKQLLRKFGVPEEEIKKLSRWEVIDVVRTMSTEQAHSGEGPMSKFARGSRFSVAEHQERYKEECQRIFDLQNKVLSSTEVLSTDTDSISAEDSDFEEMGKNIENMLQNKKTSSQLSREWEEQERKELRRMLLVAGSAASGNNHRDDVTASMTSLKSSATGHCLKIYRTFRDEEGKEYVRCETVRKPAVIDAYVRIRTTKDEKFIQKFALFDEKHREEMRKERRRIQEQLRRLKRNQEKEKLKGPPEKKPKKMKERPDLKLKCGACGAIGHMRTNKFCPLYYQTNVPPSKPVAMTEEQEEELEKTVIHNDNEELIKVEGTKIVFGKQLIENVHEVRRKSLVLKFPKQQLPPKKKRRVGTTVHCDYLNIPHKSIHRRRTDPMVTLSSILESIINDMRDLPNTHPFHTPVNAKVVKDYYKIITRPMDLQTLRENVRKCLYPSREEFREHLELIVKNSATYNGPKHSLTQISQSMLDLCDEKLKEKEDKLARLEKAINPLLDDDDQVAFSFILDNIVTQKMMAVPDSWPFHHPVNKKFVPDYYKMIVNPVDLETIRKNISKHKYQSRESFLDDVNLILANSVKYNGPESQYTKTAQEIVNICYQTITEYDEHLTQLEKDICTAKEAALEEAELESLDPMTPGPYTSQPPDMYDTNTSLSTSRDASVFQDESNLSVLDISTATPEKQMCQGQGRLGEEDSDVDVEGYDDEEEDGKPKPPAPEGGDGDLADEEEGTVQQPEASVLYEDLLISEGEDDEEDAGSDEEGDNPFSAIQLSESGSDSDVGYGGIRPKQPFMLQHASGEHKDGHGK

[25] = biological target: Bromodomain-containing protein 2 (Homo sapiens) (UniProt P25440)
Sequence of Bromodomain-containing protein 2 (Homo sapiens) (P25440 whole entry, looked up, the tested form may be a part): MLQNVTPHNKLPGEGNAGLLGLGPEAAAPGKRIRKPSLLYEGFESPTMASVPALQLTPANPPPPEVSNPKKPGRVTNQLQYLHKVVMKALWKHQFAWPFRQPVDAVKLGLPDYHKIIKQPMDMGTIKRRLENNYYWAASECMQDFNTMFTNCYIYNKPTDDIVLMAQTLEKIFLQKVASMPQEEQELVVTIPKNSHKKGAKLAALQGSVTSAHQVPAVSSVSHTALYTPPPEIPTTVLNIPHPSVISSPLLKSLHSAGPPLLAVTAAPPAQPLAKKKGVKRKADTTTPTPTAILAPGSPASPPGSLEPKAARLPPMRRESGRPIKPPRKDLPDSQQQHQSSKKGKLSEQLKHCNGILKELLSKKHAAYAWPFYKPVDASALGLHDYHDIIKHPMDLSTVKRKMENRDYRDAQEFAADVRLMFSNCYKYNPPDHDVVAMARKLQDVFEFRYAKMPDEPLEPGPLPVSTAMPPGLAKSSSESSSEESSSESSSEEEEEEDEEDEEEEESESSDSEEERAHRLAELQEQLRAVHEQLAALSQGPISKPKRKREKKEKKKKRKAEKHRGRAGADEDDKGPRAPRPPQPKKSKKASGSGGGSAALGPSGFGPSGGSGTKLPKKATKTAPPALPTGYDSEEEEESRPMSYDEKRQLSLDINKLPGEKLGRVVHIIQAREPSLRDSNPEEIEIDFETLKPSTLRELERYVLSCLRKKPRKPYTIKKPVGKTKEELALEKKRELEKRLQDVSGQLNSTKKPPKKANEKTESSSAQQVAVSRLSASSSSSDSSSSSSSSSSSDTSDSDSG

[26] = biological target: Protein polybromo-1 (Homo sapiens) (UniProt Q86U86); remark: listed apart in the source
[27] = biological target: Tripartite motif-containing protein 66 (Homo sapiens) (UniProt O15016); assay: Thermal Shift Assay. Domain start/stop: M1091-S1218
[28] = biological target: Transcription initiation factor TFIID subunit 1 (Homo sapiens) (UniProt P21675); remark: listed apart in the source
[29] = biological target: ATPase family AAA domain-containing protein 2B (Homo sapiens) (UniProt Q9ULI0)
[30] = biological target: Bromodomain-containing protein 2 (Homo sapiens) (UniProt P25440); remark: listed apart in the source
[31] = biological target: ATPase family AAA domain-containing protein 2 (Homo sapiens) (UniProt Q6PL18)
[32] = biological target: Nuclear body protein SP140-like protein (Homo sapiens) (UniProt Q9H930)
[33] = biological target: Peregrin (Homo sapiens) (UniProt P55201); remark: listed apart in the source
[34] = biological target: Bromodomain testis-specific protein (Homo sapiens) (UniProt Q58F21)
[35] = biological target: Bromodomain and PHD finger-containing protein 3 (Homo sapiens) (UniProt Q9ULD4)
[36] = biological target: Bromodomain and WD repeat-containing protein 3 (Homo sapiens) (UniProt Q6RI45)
[37] = biological target: Transcription intermediary factor 1-alpha (Homo sapiens) (UniProt O15164)
[38] = biological target: Bromodomain-containing protein 3 (Homo sapiens) (UniProt Q15059); assay: Thermal Shift Assay. Domain start/stop: P24-E144
[39] = biological target: SWI/SNF-related matrix-associated actin-dependent regulator of chromatin subfamily A member 4 (Homo sapiens) (UniProt P51532)
[40] = biological target: CREB-binding protein (Homo sapiens) (UniProt Q92793)
[41] = biological target: Transcription initiation factor TFIID subunit 1-like (Homo sapiens) (UniProt Q8IZX4); remark: listed apart in the source

Sequence of Protein polybromo-1 (Homo sapiens) (Q86U86 whole entry): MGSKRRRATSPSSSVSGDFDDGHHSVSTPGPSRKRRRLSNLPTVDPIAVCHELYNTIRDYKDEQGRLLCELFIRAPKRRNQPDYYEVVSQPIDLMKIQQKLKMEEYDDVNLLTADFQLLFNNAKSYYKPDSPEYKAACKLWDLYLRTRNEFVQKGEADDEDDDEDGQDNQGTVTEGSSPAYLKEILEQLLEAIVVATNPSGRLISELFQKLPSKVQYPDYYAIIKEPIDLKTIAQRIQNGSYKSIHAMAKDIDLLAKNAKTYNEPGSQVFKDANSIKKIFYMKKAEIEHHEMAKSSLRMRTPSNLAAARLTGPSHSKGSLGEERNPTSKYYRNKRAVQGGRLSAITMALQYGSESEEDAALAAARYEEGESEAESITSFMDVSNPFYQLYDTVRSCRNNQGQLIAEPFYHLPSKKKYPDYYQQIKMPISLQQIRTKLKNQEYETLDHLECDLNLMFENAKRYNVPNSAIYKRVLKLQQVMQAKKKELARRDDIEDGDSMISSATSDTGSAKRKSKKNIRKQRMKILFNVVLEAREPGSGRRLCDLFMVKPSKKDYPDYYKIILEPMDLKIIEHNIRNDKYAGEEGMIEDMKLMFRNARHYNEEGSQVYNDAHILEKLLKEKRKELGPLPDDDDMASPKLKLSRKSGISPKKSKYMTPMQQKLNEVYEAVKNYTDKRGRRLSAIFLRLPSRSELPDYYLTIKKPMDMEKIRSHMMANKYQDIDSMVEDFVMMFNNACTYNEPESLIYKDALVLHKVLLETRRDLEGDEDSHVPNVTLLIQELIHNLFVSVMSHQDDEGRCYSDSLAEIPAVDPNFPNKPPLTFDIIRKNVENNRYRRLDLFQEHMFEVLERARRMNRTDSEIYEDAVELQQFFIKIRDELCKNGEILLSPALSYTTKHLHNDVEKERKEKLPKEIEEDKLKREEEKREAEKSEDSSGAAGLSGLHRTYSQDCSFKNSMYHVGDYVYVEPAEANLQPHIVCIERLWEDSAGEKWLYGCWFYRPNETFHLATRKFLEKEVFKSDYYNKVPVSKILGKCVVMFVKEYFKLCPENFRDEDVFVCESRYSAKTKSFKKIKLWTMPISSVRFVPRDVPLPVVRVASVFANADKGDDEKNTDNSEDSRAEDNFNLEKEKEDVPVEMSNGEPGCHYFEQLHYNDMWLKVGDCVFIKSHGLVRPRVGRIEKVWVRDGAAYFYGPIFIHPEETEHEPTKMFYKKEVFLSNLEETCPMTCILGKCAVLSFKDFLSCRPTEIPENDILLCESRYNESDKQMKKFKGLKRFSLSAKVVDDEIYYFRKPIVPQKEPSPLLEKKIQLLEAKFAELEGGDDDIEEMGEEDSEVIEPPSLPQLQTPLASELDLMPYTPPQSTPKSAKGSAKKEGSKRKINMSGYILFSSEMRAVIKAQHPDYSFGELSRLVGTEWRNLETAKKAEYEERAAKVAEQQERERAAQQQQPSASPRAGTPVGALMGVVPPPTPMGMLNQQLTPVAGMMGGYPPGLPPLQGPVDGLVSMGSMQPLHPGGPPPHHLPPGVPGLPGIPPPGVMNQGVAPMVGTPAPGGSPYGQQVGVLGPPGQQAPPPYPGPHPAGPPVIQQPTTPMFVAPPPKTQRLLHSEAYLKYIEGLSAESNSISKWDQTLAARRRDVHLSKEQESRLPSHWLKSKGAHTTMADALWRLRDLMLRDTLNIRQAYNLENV

COc1ccccc1S(=O)(=O)Nc1ccc2c(c1)CN(C)C(=O)N2
ΔTm [1]: 1.03 °C
ΔTm [2]: -0.22 °C
ΔTm [3]: 2.42 °C
ΔTm [4]: 1.19 °C and 0.62 °C
ΔTm [5]: 0.1 °C
ΔTm [6]: 0.29 °C
ΔTm [7]: 0.62 °C
ΔTm [8]: 0.66 °C and 0.25 °C
ΔTm [9]: -0.34 °C
ΔTm [10]: 1.96 °C
ΔTm [11]: 1.62 °C
ΔTm [12]: 0.49 °C
ΔTm [13]: 1.07 °C
ΔTm [14]: 1.02 °C
ΔTm [15]: -0.1 °C and 0.81 °C
ΔTm [16]: 0.83 °C and -0.18 °C
ΔTm [17]: 0.44 °C
ΔTm [18]: 0.75 °C
ΔTm [19]: 4.59 °C and 5.45 °C
ΔTm [20]: 0.43 °C
ΔTm [21]: 0.62 °C
ΔTm [22]: 2.71 °C
ΔTm [23]: 0.99 °C
ΔTm [24]: 0.52 °C
ΔTm [25]: 5.32 °C
ΔTm [26]: -0.18 °C
ΔTm [27]: 0.42 °C
ΔTm [28]: -0.08 °C
ΔTm [29]: 0.1 °C
ΔTm [30]: 4.61 °C and 3.1 °C
ΔTm [31]: 0.71 °C
ΔTm [32]: 0.12 °C
ΔTm [33]: 0.68 °C
ΔTm [34]: 2.08 °C
ΔTm [35]: 1.72 °C
ΔTm [36]: 0.16 °C
ΔTm [37]: 0.57 °C
ΔTm [38]: 3.99 °C and 5.24 °C
ΔTm [39]: 0.51 °C
ΔTm [40]: 2.09 °C and 2.66 °C
ΔTm [41]: 0.78 °C
